Experimental data taken from ChEMBL document CHEMBL4476867, “Hydroxy formamide derivatives and their use” (2016).

Tests used:
Format in all cases: cell-based
[1] = target: T1, Bone morphogenetic protein 1 (Homo sapiens, UniProt P13497); experiment: Inhibition of C-terminal FLAG-6x-His epitope tagged and N-terminal human RAGE signal sequence tagged human BMP1 (23 to 721 amino acids) expressed in CHO-E1 cells pre-incubated for 10 mins before promyostatin peptide substrate addition and measured after 60 mins using 0.5 nM BMP1 by FRET based assay
T1 sequence (P13497 whole entry): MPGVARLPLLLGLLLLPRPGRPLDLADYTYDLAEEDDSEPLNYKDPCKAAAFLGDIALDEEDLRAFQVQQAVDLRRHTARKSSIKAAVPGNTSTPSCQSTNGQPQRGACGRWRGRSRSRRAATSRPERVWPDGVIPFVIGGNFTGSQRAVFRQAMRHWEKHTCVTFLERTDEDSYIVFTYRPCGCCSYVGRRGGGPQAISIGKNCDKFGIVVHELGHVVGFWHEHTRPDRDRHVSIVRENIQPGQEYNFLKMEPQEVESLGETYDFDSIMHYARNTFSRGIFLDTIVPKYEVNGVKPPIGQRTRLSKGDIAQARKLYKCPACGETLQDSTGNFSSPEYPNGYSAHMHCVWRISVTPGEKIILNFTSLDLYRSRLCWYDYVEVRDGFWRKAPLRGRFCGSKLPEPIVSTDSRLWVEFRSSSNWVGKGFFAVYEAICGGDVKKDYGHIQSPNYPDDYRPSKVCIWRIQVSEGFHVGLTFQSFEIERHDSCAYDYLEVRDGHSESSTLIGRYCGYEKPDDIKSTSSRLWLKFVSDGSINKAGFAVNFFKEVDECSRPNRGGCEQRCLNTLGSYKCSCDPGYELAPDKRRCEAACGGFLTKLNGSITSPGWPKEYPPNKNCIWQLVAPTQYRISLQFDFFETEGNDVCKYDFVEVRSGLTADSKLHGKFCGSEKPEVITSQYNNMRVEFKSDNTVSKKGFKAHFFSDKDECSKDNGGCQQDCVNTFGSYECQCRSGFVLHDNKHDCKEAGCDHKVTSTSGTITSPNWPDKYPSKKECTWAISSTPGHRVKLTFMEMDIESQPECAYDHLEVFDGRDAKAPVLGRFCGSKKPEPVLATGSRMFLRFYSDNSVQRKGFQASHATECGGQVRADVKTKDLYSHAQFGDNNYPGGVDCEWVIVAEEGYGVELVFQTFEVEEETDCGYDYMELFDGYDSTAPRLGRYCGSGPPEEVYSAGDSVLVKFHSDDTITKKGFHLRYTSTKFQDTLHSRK

[2] = target: T1, Bone morphogenetic protein 1; experiment: Inhibition of C-terminal FLAG-6x-His epitope tagged and N-terminal human RAGE signal sequence tagged human BMP1 (23 to 721 amino acids) expressed in CHO-E1 cells pre-incubated for 10 mins before promyostatin peptide substrate addition and measured after 30 mins using 50 nM BMP1 by FRET based assay
[3] = target: Tolloid-like protein 1 (Homo sapiens, UniProt O43897, I156V/N221S/V284A); experiment: Inhibition of recombinant human TLL1 I156V/N221S/V284A mutant expressed in CHOE1A cells pre-incubated for 10 mins before promyostatin peptide substrate addition and measured after 60 mins by FRET based assay
[4] = target: T2, Tolloid-like protein 2 (Homo sapiens, UniProt Q9Y6L7); experiment: Inhibition of C-terminal Avi-6x-His epitope tagged and N-terminal human RAGE signal sequence tagged recombinant human TLL2 (26 to 1015 amino acids) expressed in CHOE1A cells incubated for 60 mins with promyostatin peptide substrate by FRET based assay
T2 sequence (Q9Y6L7 whole entry): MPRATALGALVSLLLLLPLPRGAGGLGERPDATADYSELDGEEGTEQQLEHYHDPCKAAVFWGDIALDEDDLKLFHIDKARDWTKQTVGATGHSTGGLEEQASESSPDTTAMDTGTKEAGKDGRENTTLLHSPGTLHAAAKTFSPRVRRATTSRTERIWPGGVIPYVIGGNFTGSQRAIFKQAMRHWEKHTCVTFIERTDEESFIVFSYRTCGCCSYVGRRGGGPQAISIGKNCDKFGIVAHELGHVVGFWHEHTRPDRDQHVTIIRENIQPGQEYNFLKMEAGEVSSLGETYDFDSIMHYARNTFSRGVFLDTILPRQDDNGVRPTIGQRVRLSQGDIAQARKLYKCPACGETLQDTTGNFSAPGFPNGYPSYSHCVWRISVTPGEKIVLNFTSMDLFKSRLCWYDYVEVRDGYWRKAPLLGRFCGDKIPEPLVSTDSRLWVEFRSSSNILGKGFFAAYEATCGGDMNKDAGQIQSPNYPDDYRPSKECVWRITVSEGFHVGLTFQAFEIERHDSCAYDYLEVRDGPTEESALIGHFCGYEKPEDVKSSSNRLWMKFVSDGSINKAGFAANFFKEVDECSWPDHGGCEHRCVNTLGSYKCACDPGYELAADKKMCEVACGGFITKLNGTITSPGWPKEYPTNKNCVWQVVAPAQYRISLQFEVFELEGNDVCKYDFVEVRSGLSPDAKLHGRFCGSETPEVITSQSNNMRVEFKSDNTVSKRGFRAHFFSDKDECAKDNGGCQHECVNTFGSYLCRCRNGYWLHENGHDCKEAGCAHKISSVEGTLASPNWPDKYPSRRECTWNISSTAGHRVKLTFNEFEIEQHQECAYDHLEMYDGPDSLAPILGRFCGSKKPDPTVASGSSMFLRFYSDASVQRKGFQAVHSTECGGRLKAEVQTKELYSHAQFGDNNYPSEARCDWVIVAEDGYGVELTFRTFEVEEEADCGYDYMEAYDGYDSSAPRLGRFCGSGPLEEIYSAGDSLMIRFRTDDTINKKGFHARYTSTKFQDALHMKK

Tolloid-like protein 1, sequence (O43897 148-1013 I156V/N221S/V284A limits assumed): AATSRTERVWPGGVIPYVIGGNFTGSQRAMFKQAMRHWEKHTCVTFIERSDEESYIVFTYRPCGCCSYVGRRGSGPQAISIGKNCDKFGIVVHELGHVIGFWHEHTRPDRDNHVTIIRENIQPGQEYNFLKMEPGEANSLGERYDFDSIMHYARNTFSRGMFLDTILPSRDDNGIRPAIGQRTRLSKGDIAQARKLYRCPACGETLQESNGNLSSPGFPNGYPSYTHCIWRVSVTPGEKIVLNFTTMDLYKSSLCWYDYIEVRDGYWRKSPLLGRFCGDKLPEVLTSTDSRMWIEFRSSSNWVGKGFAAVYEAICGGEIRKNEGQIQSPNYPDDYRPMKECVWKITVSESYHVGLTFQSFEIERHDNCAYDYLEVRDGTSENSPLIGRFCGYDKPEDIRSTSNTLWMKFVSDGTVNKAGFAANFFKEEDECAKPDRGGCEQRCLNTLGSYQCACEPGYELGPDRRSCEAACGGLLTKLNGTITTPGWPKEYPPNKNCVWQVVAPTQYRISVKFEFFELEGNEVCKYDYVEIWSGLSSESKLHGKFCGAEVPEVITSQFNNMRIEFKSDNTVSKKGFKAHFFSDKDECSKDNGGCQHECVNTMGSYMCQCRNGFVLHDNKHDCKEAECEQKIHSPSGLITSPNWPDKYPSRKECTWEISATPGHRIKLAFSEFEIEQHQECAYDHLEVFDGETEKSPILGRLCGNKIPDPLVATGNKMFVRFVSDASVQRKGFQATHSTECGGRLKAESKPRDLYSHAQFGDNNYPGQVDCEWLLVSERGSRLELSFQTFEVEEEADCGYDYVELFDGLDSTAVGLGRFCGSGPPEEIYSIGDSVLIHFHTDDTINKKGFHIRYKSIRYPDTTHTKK

With `CCCCC[C@H](CN(O)C=O)C(=O)NCNC(=O)c1ccc(-c2cccc(OC)c2)o1` the IC50 [1] was < 0.126 µM, the IC50 [2] was < 0.2 µM and the IC50 [3] was < 0.398 µM. The IC50 [4] was < 0.794 µM.
For `CCCCC[C@H](CN(O)C=O)C(=O)NCNC(=O)c1ccc(-c2ccccc2OC)o1`, the IC50 [1] was < 0.126 µM, the IC50 [2] was < 0.2 µM and the IC50 [3] was < 0.398 µM. For the same compound, the IC50 [4] was < 0.794 µM.
In the case of `CCCCC[C@@H](C(=O)NCNC(=O)C1CCC(c2ccccc2)O1)[C@@H](CC)N(O)C=O` (stereo not given in full), the IC50 [1] is reported as < 0.126 µM, the IC50 [2] is reported as < 0.2 µM and the IC50 [3] is reported as < 0.398 µM. For the same compound, the IC50 [4] was < 0.794 µM.
With `CCCCC[C@H](CN(O)C=O)C(=O)NCNC(=O)c1ccc(-c2ccc(F)c(OC)c2)o1` the IC50 [1] was < 0.126 µM, the IC50 [2] was < 0.2 µM and the IC50 [3] was < 0.398 µM. For the same compound, the IC50 [4] was < 0.794 µM.
In the case of `CCCCC[C@H](CN(O)C=O)C(=O)NCNC(=O)c1ccc(-c2cccc(C(=O)OC(C)(C)C)c2)o1`, the IC50 [1] is reported as < 0.126 µM, the IC50 [2] is reported as < 0.2 µM and the IC50 [3] is reported as < 0.398 µM. For the same compound, the IC50 [4] was < 0.794 µM.
With `O=CN(O)C[C@@H](CCc1ccccc1)C(=O)NCNC(=O)c1ccc(-c2ccccc2)o1` the IC50 [1] was < 0.126 µM, the IC50 [2] was < 0.2 µM and the IC50 [3] was < 0.398 µM. For the same compound, the IC50 [4] was < 0.794 µM.
With `CCCCC[C@H](CN(O)C=O)C(=O)NCNC(=O)c1ccc(-c2cccc(P(C)(=O)OCC)c2)o1` (stereo not given in full) the IC50 [1] was < 0.126 µM, the IC50 [2] was < 0.2 µM and the IC50 [3] was < 0.398 µM. For the same compound, the IC50 [4] was < 0.794 µM.
`CCCCC[C@H](CN(O)C=O)C(=O)NCNC(=O)c1ccc(-c2cccc(S(=O)(=O)N(C)C)c2)o1` was tested, and the IC50 [1] was < 0.126 µM, the IC50 [2] was < 0.2 µM and the IC50 [3] was < 0.398 µM. For the same compound, the IC50 [4] was < 0.794 µM.
In the case of `CCCCC[C@H](CN(O)C=O)C(=O)NCNC(=O)c1ccc(-c2ccc3cn(C)nc3c2)o1`, the IC50 [1] is reported as < 0.126 µM, the IC50 [2] is reported as < 0.2 µM and the IC50 [3] is reported as < 0.398 µM. The IC50 [4] was < 0.794 µM.
For `CCCCC[C@@H](C(=O)NCNC(=O)c1ccc(-c2ccc(C)c(C(=O)O)c2)o1)[C@@H](CC)N(O)C=O`, the IC50 [1] was < 0.126 µM, the IC50 [2] was < 0.2 µM and the IC50 [3] was < 0.398 µM. For the same compound, the IC50 [4] was < 0.794 µM.
For `CCCCC[C@@H](C(=O)NCNC(=O)c1ccc(-c2cncc(C(=O)O)c2)o1)[C@@H](CC)N(O)C=O`, the IC50 [1] was < 0.126 µM, the IC50 [2] was < 0.2 µM and the IC50 [3] was < 0.398 µM. The IC50 [4] was < 0.794 µM.
With `CCCCC[C@@H](C(=O)NCNC(=O)c1ccc(-c2cccc(OCCC)c2)o1)[C@@H](CC)N(O)C=O` the IC50 [1] was < 0.126 µM, the IC50 [2] was < 0.2 µM and the IC50 [3] was < 0.398 µM. For the same compound, the IC50 [4] was < 0.794 µM.
With `CCCCC[C@H](CN(O)C=O)C(=O)NCNC(=O)c1ccc(-c2ccc(OC)c(C(=O)O)c2)o1` the IC50 [1] was < 0.126 µM, the IC50 [2] was < 0.2 µM and the IC50 [3] was < 0.398 µM. For the same compound, the IC50 [4] was < 0.794 µM.
For `CS(=O)(=O)c1cccc(-c2ccc(C(=O)NCNC(=O)[C@H](CCc3ccccc3)CN(O)C=O)o2)c1`, the IC50 [1] was < 0.126 µM, the IC50 [2] was < 0.2 µM and the IC50 [3] was < 0.398 µM. The IC50 [4] was < 0.794 µM.
For `CCCCC[C@H](CN(O)C=O)C(=O)NCNC(=O)c1ccc(-c2ccc(C#N)cc2)o1`, the IC50 [1] was < 0.126 µM, the IC50 [2] was < 0.2 µM and the IC50 [3] was < 0.398 µM. For the same compound, the IC50 [4] was < 0.794 µM.
For `CCCCC[C@@H](C(=O)NCNC(=O)c1ccc(-c2cc(OCC)cc(P(=O)(O)O)c2)o1)[C@@H](CC)N(O)C=O.NC(CO)(CO)CO`, the pIC50 [1] was > 6.9.
With `CCCCC[C@H](CN(O)C=O)C(=O)NCNC(=O)c1ccc(-c2ccccc2C(=O)OC)o1` the IC50 [1] was < 0.126 µM, the IC50 [2] was < 0.2 µM and the IC50 [3] was < 0.398 µM. The IC50 [4] was < 0.794 µM.
